ChEMBL document CHEMBL3588786, “Synthesis and Biological evaluation of novel 4β-[(5-substituted)-1,2,3,4-tetrazolyl] podophyllotoxins as anticancer compounds” (Bioorg Med Chem Lett, 2015)
Active and inactive are the calls of the source. The rule behind the calls is not given here.

Columns and labels:
[1] = test system: A549; experiment: Induction of cell cycle arrest in human A549 cells assessed as accumulation at S phase at 5 uM after 24 hrs by flow cytometry; assay type: functional
[2] = test system: MCF7; experiment: Cytotoxicity against human MCF7 cells assessed as cell viability by SRB assay; assay type: functional, cell-based
[3] = test system: A549; experiment: Induction of cell cycle arrest in human A549 cells assessed as accumulation at G1 phase at 5 uM after 24 hrs by flow cytometry; assay type: functional
[4] = test system: SK-N-SH; experiment: Cytotoxicity against human SK-N-SH cells assessed as cell viability by SRB assay; assay type: functional, cell-based
[5] = molecular target: Tubulin (Bos taurus) (UniProt Q6B856+Q862F3); experiment: Inhibition of bovine brain tubulin polymerization assessed as increase in fluorescence intensity at 5 uM relative to control
[6] = test system: A549; experiment: Induction of cell cycle arrest in human A549 cells assessed as accumulation at G0 phase at 5 uM after 24 hrs by flow cytometry; assay type: functional
[7] = test system: A549; experiment: Cytotoxicity against human A549 cells assessed as cell viability by SRB assay; assay type: functional, cell-based
[8] = test system: A549; experiment: Induction of cell cycle arrest in human A549 cells assessed as accumulation at G2/M phase at 5 uM after 24 hrs by flow cytometry; assay type: functional
[9] = test system: HeLa; experiment: Cytotoxicity against human HeLa cells assessed as cell viability by SRB assay; assay type: functional, cell-based
[10] = test system: A549; experiment: Antimitotic activity against human A549 cells at 5 uM after 12 hrs by flow cytometry; assay type: functional, cell-based

| Compound | Activity [1] [%] | IC50 [2] [µM] | Activity [3] [%] | IC50 [4] [µM] | inhibition [5] [%] | Activity [6] [%] | IC50 [7] [µM] | Activity [8] [%] | IC50 [9] [µM] | Activity [10] |
| --- | --- | --- | --- | --- | --- | --- | --- | --- | --- | --- |
| COc1cc([C@@H]2c3cc4c(cc3[C@@H](n3nnnc3C(=O)c3ccccc3)[C@H]3COC(=O)[C@H]23)OCO4)cc(OC)c1OC | 5.73 | 6.89 | 13.88 | 4.68 | 72.5 | 11.01 | 4.29 | 69.37 | 4.76 | – |
| COC(=O)c1nnnn1[C@@H]1c2cc3c(cc2[C@@H](c2cc(OC)c(O)c(OC)c2)[C@H]2C(=O)OC[C@@H]21)OCO3 | 6.38 | 5.27 | 15.18 | 5.64 | 28.3 | 9.96 | 2.44 | 68.48 | 3.95 | – |
| CC(=O)O[C@H]1C(=O)[C@@]2(C)[C@H]([C@H](OC(=O)c3ccccc3)[C@]3(O)C[C@H](OC(=O)[C@H](O)[C@@H](NC(=O)c4ccccc4)c4ccccc4)C(C)=C1C3(C)C)[C@]1(OC(C)=O)CO[C@@H]1C[C@@H]2O [PACLITAXEL] | 6.01 | – | 13.7 | – | – | 9.81 | – | 70.48 | – | – |
| COc1cc([C@@H]2c3cc4c(cc3[C@@H](n3nnnc3C(=O)OCc3ccccc3)[C@H]3COC(=O)[C@H]23)OCO4)cc(OC)c1O | 8.25 | 9.44 | 19.95 | 6.16 | 29.8 | 8.61 | 2.98 | 63.19 | 4.77 | – |
| COC(=O)Nc1nc2ccc(C(=O)c3cccs3)cc2n1C | – | – | – | – | 65.3 | – | – | – | – | – |
| CCOC(=O)c1nnnn1[C@@H]1c2cc3c(cc2[C@@H](c2cc(OC)c(O)c(OC)c2)[C@H]2C(=O)OC[C@@H]21)OCO3 | 6 | 12.4 | 11.83 | 25.9 | 2.68 | 7.3 | 6.49 | 74.86 | 29.1 | Active |
| COc1cccc2c1C(=O)c1c(O)c3c(c(O)c1C2=O)C[C@@](O)(C(=O)CO)C[C@@H]3O[C@H]1C[C@H](N)[C@H](O)[C@H](C)O1 [DOXORUBICIN] | – | 12.3 | – | 7.36 | – | – | 6.13 | – | 10.8 | – |
| COc1cc([C@@H]2c3cc4c(cc3[C@@H](n3nnnc3C(=O)OCc3ccccc3)[C@H]3COC(=O)[C@H]23)OCO4)cc(OC)c1OC | 6.61 | 4.85 | 17.77 | 4.58 | 57.5 | 10.28 | 2.48 | 65.34 | 4.01 | – |
| COc1cc([C@@H]2c3cc4c(cc3[C@H](O)[C@H]3COC(=O)[C@H]23)OCO4)cc(OC)c1OC [PODOFILOX] | 10.03 | 3.34 | 19.71 | 7.92 | 93.9 | 9.48 | 2.55 | 60.77 | 1.92 | – |
| COc1cc([C@@H]2c3cc4c(cc3[C@@H](n3nnnc3C(=O)c3ccccc3)[C@H]3COC(=O)[C@H]23)OCO4)cc(OC)c1O | 6.49 | 7.02 | 19.89 | 3.49 | 11.5 | 9.66 | 2.71 | 63.93 | 3.61 | Active |
| COc1cc([C@@H]2c3cc4c(cc3[C@@H](n3nnnc3S(=O)(=O)c3ccc(C)cc3)[C@H]3COC(=O)[C@H]23)OCO4)cc(OC)c1OC | 5.22 | 6.99 | 20.09 | 5.31 | 0.73 | 19.96 | 2.89 | 54.73 | 3.15 | Active |
| COc1cc([C@@H]2c3cc4c(cc3[C@@H](n3nnnc3S(=O)(=O)c3ccc(C)cc3)[C@H]3COC(=O)[C@H]23)OCO4)cc(OC)c1O | 7.28 | 5.29 | 19.28 | 3.44 | 22.5 | 11 | 3.29 | 62.48 | 3.05 | – |
| COC(=O)c1nnnn1[C@@H]1c2cc3c(cc2[C@@H](c2cc(OC)c(OC)c(OC)c2)[C@H]2C(=O)OC[C@@H]21)OCO3 | 4.61 | 6.97 | 30.01 | 6.5 | 12.4 | 19.92 | 3.11 | 45.43 | 5.25 | Active |
| CCOC(=O)c1nnnn1[C@@H]1c2cc3c(cc2[C@@H](c2cc(OC)c(OC)c(OC)c2)[C@H]2C(=O)OC[C@@H]21)OCO3 | 5.52 | 7.47 | 16.44 | 3.61 | 99.2 | 12.44 | 2.4 | 65.6 | 4.76 | – |
